We go through 2 substances from patent US20060013899A1, “Topical compositions for treatment of skin disorders and methods of use thereof” (priority 2004, published 2006).

One data set relates to interleukin-8. Conditions: cited from earlier work.
Data set [1] relates to eczema, psoriasis and other forms of immuno-dysfunctional dermatitis. Put plainly: control of eczema, psoriasis and other immuno-dysfunctional dermatitis by the individual ingredients and their combination. Format: in vivo, human. The text has this: The present invention includes zinc pyrithione, which has been used in other preparations for various types of skin conditions. Zinc pyrithione may be used to control mild to possibly moderate eczema and psoriasis.
The explanations above provide some validation of how these three ingredients may provide limited benefits, but cannot explain the dynamics of their relationship in the control of pro-inflammatory cytokines and the speed of the repair and healing process.

The conditions of data set [2]: 24 patients, 0.25% zinc pyrithione spray; cited from earlier work.
In data set [3] the test system is mild to moderate eczema lesions. The text has this:
Anecdotally, zinc pyrithione appears to produce a transient histamine blocking or inhibiting mechanism.

For data set [4] the following is noted: only known side effect; cited from earlier work.
Setting [5] is: suspended in a water solution, topical, mild to moderate eczema lesions.

In the case of epigallocatechin-3-gallate, in the data set on interleukin-8, the “tumor necrosis factor-alpha mediated interleukin-8 expression” value is listed as “inhibits tumor necrosis factor-alpha mediated interleukin-8 expression in a dose related manner”.

With zinc pyrithione, in data set [1] (ingredient used individually or the three combined), the control of disease entry is “some degree of control benefits for mild and possibly moderate eczema, psoriasis”. Besides, the “control of disease in the moderate to severe ranges” value in data set [1] (zinc pyrithione by itself) is recorded as “fails to control these diseases in the moderate to severe ranges”. The “effect on the efficacy of clobetasol propionate” value in data set [2] was “did not appear to enhance the efficacy of clobetasol propionate”. The erythema entry in data set [3] (during the period of itch relief) is recorded as “erythema was reduced”. In addition, in data set [3] (setting [5]), the “duration of itch relief” value is “up to six” and the “time to relief of the itching sensation” value is “fifteen to thirty”. For the same substance, the “normal allergic reaction, share of the population” value in data set [4] was “less than one”.
